# Data taken from US6999905B2, “Method for extracting significant signal, recording medium and program” (priority 2002, dated 2006).
# Legend:
# Format in all cases: cell-based
# [1] = system: neuron prepared from Lymnaea stagnails
# [2] = system: neuron prepared from Lymnaea stagnails; experiment: Extracellular recording of a neuron before and after glutamate, normal distribution of standard deviations (Example 2); details: after application of 50 μM glutamate, before application 0.488
# Description: FIG. 3 is a schematic diagram showing a configuration of an apparatus and steps used in a signal extracting method according to Example 2 of the present invention. The apparatus comprises a measurement section 101 for continuously measuring action potential generated from a neuron; a computer 100 incorporating a hard disk storing a program for executing a standard deviation calculation step 102 for calculating a standard deviation of measured data every predetermined time, a normal distribution approximation step 103 for dividing a standard deviation group consisting of a plurality of resultant standard deviations into a plurality of classes having a predetermined width of standard deviation as a unit, and plotting each standard deviation on a coordinate system in which X axis represents the class and Y axis represents the number of the standard deviations existing in each class, an average and half-width calculation step 106 for approximating the resultant graph to a normal distribution, and calculating the average and half-width of the resultant normal distribution, and an activity categorization step 109 for categorizing an ion channel activity based on the resultant average and half-width; and a data displaying section 110, such as CRT, for displaying the ion channel activity. […]
# [3] = system: neuron prepared from Lymnaea stagnails; experiment: Electrical signal of a neuron under glutamate, average of standard deviations (Example 1); details: 0, 0.1, 0.3, 1, 3, 10, 30, or 100 μM glutamate; standard deviation of 100 milliseconds; FIG. 6
# Description: FIG. 2 is a schematic diagram showing a configuration of an apparatus and steps used in a signal extracting method according to Example 1 of the present invention. The apparatus comprises a measurement section 101 for continuously measuring action potential generated from a neuron; a computer 100 incorporating a hard disk storing a program for executing a standard deviation calculation step 102 for calculating a standard deviation of measured data every predetermined time, an average calculation step 105 for calculating an average of standard deviation values output every predetermined time, and an activity calculation step 108 for calculating an ion channel activity from an average output from the average calculation step 105; and a data displaying section 110, such as CRT, for displaying the ion channel activity.
# The apparatus was used to measure an electrical signal of a neuron which was actually prepared from Lymnaea stagnails where 0, 0.1, 0.3, 1, 3, 10, 30, or 100 μM glutamate was applied to the neuron. The resultant measured data spanning […] was divided into pieces of subdata spanning 100 milliseconds, for each of which a standard deviation was in turn calculated. The average of the standard deviations was plotted in FIG. 6. […]
# [4] = system: neuron prepared from Lymnaea stagnails; experiment: Conventional intracellular recording of a neuron before and after glutamate, same signal processing (Example 2, FIG. 8); details: after application of glutamate, before application 0.181
# Description: The curve to the left in FIG. 8 is a histogram of standard deviation values every 5 milliseconds before application of glutamate. The curve to the right in FIG. 8 is a histogram of standard deviation values every 5 milliseconds after the application of glutamate. As indicated in these figures, the averages and half-widths of graphs obtained by approximating the histograms, before and after the application of glutamate, to normal distributions are 0.181 and 0.041, respectively, before the application and 0.534 and 0.204, respectively, after the application. Comparing between the results of FIGS. 7 and 8, the result of the extracellular recording method is similar to that of the intracellular recording method.
# [5] = system: Smooth muscle cells derived from rat aorta vessels; experiment: Potential changes of smooth muscle cells on a semiconductor substrate stimulated with norepinephrine (Example 7); details: 10 μM norepinephrine; potential changes measured for 60 seconds; FIG. 15
# Experimental: Smooth muscle cells derived from rat aorta vessels were cultured on a specially treated semiconductor substrate.
# The semiconductor substrate has 100 through holes, each of which has a diameter of 5 μm with the pitch of the through holes being 30 μm, in an area of 1 mm^2. A surface of the semiconductor substrate was coated with 0.01% (w/v) collagen type I solution (Sigma C8919) at a density of 10 μg/cm^2, which was in turn allowed to react at 37° C. for 30 minutes, followed by air drying. Smooth muscle cells derived from rat aorta vessels were cultured on the substrate cleansed with sterilized water. After three days of the culture, the following experiment was conducted.
# When measuring ion channel activity, the vessel smooth muscle cells were suctioned by applying a predetermined pressure from the rear side of the semiconductor substrate so that the cells were made to contact the semiconductor substrate. […] In an experimental system, the smooth muscle cells were stimulated with 10 μM norepinephrine, and potential changes were measured for 60 seconds. […] Note that the collection of time-series data was started 10 milliseconds after the start of the experiment, so that measured data was not extracted for the time lag. Thereafter, standard deviations were calculated every 100 milliseconds from the time-series data, thereby clearly extracting ion channel activities due to the stimulant. […]
compound,measurement,setting,value
"NC1=N[C@H](O)[C@H]2[C@H]3O[C@]4(O)O[C@@H]([C@@H](O)[C@@]2(N1)[C@@H]4O)[C@]3(O)CO [TTX, tetrodotoxin]",average of the distribution of standard deviation values every 5 milliseconds,[1],shifted along the horizontal axis toward the left further than the control
N[C@@H](CCC(=O)O)C(=O)O [glutamate],average of the distribution of standard deviation values every 5 milliseconds,[1],shifted toward the right along the horizontal axis
same,average of normal distribution of standard deviation values every 5 milliseconds,[2],0.733
same,average of the standard deviations (ion channel activity),[3],dependent on glutamate concentration
same,average of normal distribution of standard deviation values every 5 milliseconds,[4],0.534
NC[C@H](O)c1ccc(O)c(O)c1 [norepinephrine],average of the normal distribution of standard deviations every 100 milliseconds (ion channel activities),[5],clearly shifted toward higher class values than when no drug was applied
